Experiment [1] concerns the target JAK1 (recombinant purified GST-tagged catalytic domain) (Homo sapiens (Human), UniProt P23458).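 Note: biochemical assay with HTRF read-out.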
Experiment [2] concerns the target JAK2 (recombinant purified GST-tagged catalytic domain) (Homo sapiens (Human), UniProt O60674).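 Note: biochemical JAK kinase assay with HTRF detection.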

The structures appear in SMILES notation. Some results are limits rather than exact numbers.

Sequence of JAK1 (recombinant purified GST-tagged catalytic domain) (P23458 875-1153): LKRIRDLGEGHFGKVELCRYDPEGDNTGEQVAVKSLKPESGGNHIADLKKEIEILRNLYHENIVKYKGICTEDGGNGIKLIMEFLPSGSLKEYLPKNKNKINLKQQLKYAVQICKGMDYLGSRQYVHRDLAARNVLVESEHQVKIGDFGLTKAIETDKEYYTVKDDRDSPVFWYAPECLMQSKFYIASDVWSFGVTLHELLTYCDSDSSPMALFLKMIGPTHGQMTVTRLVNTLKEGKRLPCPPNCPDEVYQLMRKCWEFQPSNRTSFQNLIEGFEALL
Sequence of JAK2 (recombinant purified GST-tagged catalytic domain) (O60674 849-1124): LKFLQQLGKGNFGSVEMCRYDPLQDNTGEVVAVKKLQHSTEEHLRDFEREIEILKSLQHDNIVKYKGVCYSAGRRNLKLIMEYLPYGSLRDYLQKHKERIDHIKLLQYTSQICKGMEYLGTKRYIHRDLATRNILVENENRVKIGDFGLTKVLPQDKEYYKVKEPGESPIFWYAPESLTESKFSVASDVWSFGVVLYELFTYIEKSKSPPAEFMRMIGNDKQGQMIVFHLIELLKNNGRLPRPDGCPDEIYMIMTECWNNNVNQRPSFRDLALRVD

A word on the IC50: it is the concentration that gives 50% inhibition. With `CN[C@@H]1CC[C@H](C#N)[C@@H](n2cc(C(N)=O)c(Nc3ccc(F)cc3)n2)C1` (mixture of isomers) [Example 6-3, 1-{[(1S,2S,5R) and (1R,2R,5S)]-2-cyano-5-(methylamino)cyclohexyl}-3-[(4-fluorophenyl)amino]-1H-pyrazole-4-carboxamide], the IC50 was 250 nM in experiment [1] and > 1500 nM in experiment [2].
`CC1(C)CC[C@@H](C#N)[C@@H](n2cc(C(N)=O)c(Nc3ccccc3)n2)C1` (mixture of isomers) [Example 11-2, 1-{[(1S,2R) and (1R,2S)]-2-Cyano-5,5-dimethylcyclohexyl}-3-(phenylamino)-1H-pyrazole-4-carboxamide]: the IC50 in experiment [1] was 11 nM; in experiment [2] it was 50 nM.
Consider `CS(=O)(=O)N[C@@H]1CC[C@H](n2cc(C(N)=O)c(Nc3ccc(F)cc3)n2)[C@@H](C#N)C1` (mixture of isomers) [Example 38-2, 1-{(1S,2S,4R and 1R,2R,4S)-2-cyano-4-[(methylsulfonyl)amino]cyclohexyl}-3-[(4-fluorophenyl)amino]-1H-pyrazole-4-carboxamide], for which the IC50 in experiment [1] was 0.9 nM; in experiment [2], 12 nM.
Turning to `N#C[C@@H]1CCC2(C[C@@H]1n1cc(C(N)=O)c(Nc3ccccc3)n1)OCCO2` (single isomer, unassigned) [Example 45-4, 1-[(7S,8R or 7R,8S)-8-Cyano-1,4-dioxaspiro[4.5]dec-7-yl]-3-(phenylamino)-1H-pyrazole-4-carboxamide], the IC50 in experiment [1] was determined as 13 nM; in experiment [2], 59 nM.
For `N#C[C@H]1C[C@H](N2CCC2)CC[C@@H]1n1cc(C(N)=O)c(Nc2ccc(OC(F)F)nc2)n1` (single isomer, unassigned) [Example 28-2, 1-[(1S,2S,4R or 1R,2R,4S)-4-(azetidin-1-yl)-2-cyanocyclohexyl]-3-{[6-(difluoromethoxy)pyridin-3-yl]amino}-1H-pyrazole-4-carboxamide], the 50% inhibitory concentration (IC50) in experiment [1] was found to be 4 nM; in experiment [2], 67 nM.
Take `CS(=O)(=O)c1ccc(Nc2nn([C@H]3CCC[C@@H]3C#N)cc2C(N)=O)cc1` (mixture of isomers) [Example 1-4, 1-{[(1S,2S) and (1R,2R)-2-cyanocyclopentyl]}-3-{4-(methylsulfonyl)phenyl]amino}-1H-pyrazole-4-carboxamide]: the IC50 in experiment [1] amounted to 0.5 nM; in experiment [2] it was 11 nM.
As for `CC(C)(C)OC(=O)C1CC[C@H](C#N)[C@@H](n2cc(C(N)=O)c(Nc3ccccc3)n2)C1` (mixture of isomers) [Example 12-1, (3S,4S and 3R,4R)-tert-butyl 3-(4-carbamoyl-3-(phenylamino)-1H-pyrazol-1-yl)-4-cyanocyclohexanecarboxylate], the figures for the IC50 in experiment [1] and in experiment [2] were 7 nM and 50 nM, respectively.
For `CC1(C)CN(C(=O)[C@H]2CC[C@H](n3cc(C(N)=O)c(Nc4ccc(Cl)cc4)n3)[C@@H](C#N)C2)C1` (single isomer, unassigned) [Example 35-1, 3-(4-chlorophenylamino)-1-((1S,2S,4S or 1R,2R,4R)-2-cyano-4-(3,3-dimethylazetidine-1-carbonyl)cyclohexyl)-1H-pyrazole-4-carboxamide], the results for the IC50 in experiment [1] and in experiment [2] were 6 nM and 45 nM, respectively.

Source of the values: patent US8962608B2, “Cycloalkylnitrile pyrazole carboxamides as janus kinase inhibitors” (Merck Sharp & Dohme Corp., priority 2011, dated 2015).
